Experimental data from patent publication US20250311722A1, “IMPROVED BIOCIDE” (Purgos ApS, priority 2022, published 2025).
Several values for one entry are separate records, joined by “and”; a condition that tells them apart may be missing. Identical values can stand only once.

Columns and labels:
[1] = test system: selected typical species of contaminants; assay: Substitution of conventional biocides with NBDA in products, LuminUltra test against controls; assay type: cell-based
Excerpt: A test sample (T): In a known recipe for a product comprising one or more conventional biocide(s), said biocide(s) is replaced with NBDA (or another tert, amine according to the present invention).
A control sample (C): Product comprising one or more conventional biocide(s) produced following an established recipe.
A negative control sample (N): A further negative control may be provided by removing said conventional biocide(s) from the recipe, without addition of NBDA (or other biocides). Provision and test of the N-sample can be optional.
Samples, such as test-, control- and/or negative control samples are provided according to Example 3. To assess the effect of the biocide(s), microbial contamination is measured, such as according to Example 6, or other conventional methods known in the art.
In short, samples are exposed to microbial contamination (microbial stress test) e.g. by opening a lid and closing it for a defined period of time, or other operations, mimicking a conventional user situation. Alternatively, samples can be inoculated with defined quantities of microorganisms, such as one or more indicator microorganism.
The samples can be divided into different aliquots, and incubated for selected periods at one or more relevant temperatures, such as e.g. one or more of 4° C., room temperature (RT, usually 20° C., 22° C., or 25° C.), 30° C., 32° C., 37° C., 40° C., and/or 60° C.), simulating e.g. appropriate storage, processing and usage conditions.
ATP, such as intracellular ATP is measured using a commercially available system, such as provided by LumiUltra®, in particular a method using luminase (Aqua Tools, see details below).
In short, a buffering solution and Luminase enzyme are mixed. After daily ATP standard calibration, an aliquot, such as 1 ml of sample is transferred to an 1 ml extraction tube. After dilution in UltraLute resin, the total ATP (content can be established in the luminescence measuring device. 2) 1 ml sample is dissolved in LumiSolve stabilizing agent. […] For further details, see e.g. Aqua Tools (78300 Poissy, France) Quick reference guide QuenchGone21™ Speciality Test Kit QG21S-50/QG21St-100 2G.

[2] = test system: Escherichia coli, ATCC 10536; assay: EN 1276 quantitative suspension test, bactericidal activity; assay type: cell-based
Description: (§1) The test was carried out according to EN 1276, 2019: Chemical disinfectants and antiseptics-Quantitative suspension test for the evaluation of bactericidal activity of chemical disinfectants and antiseptics used in food, industrial, domestic, and institutional areas-Test method and requirements. […] The growth media TSB (Tryptic Soy Broth) was separately inoculated with a culture loop of the microorganisms. The cultures were incubated at 37° C. for 24 hours. Bovine Serum Albumin with a final concentration of 3 g/L Polysorbate 80 with a concentration of 30 g/L The used method was Dilution-neutralization method. 1 mL of interfering substance was pipetted into a tube and 1 mL of the test suspension was added and mixed. […] The solution was incubated at 20° C. for 5 min. and 60 min. respectively. […] After 5 min. of neutralization time 100 μL of the mixture was added to a petri-dish containing TSA media. Another 100 μL was added to a tube containing 900 μL 0.9% NaCl and a serial dilution to 10^-5 was made. The mixtures added to the agar plates were evenly distributed with a Drigalski-spatula. The agar plates were incubated at 37° C. for 24 hours. After incubation, the number of surviving bacteria (CFU) was counted. The test was performed in 3 replicates.

[3] = test system: Staphylococcus aureus, ATCC 6538; assay: as above; assay type: cell-based; conditions: all tested contact times (5, 60 min) and concentrations (1.5%, 3%, 6%)
Description: as §1

[4] = test system: Enterococcus hierae, ATCC 10541; assay: as above; assay type: cell-based, Enterococcus hirae; conditions: all tested contact times (5, 60 min) and concentrations (1.5%, 3%, 6%)
Description: as §1

CCCCN(CCO)CCO [NBDA, N-butyldiethanolamine]
biocidal protection ([1]; SBR precoat composition for carpets, MIT/BIT substituted with 0.5% NBDA): same performance as the origin
biocidal effect ([1]; Styrene-Butadiene-Rubber (SBR)-emulsion, MIT and/or BIT replaced, 32° C.): comparable and better than the normal biocide package
biocidal effect ([1]; algae removing compound, benzalkonium chloride replaced with 1-5%, 32° C.): comparable or even surpassing benzalkonium chloride in function
biocidal effect ([1]; circulating heat-transfer systems, benzalkonium chloride replaced with 1-5%, 32° C.): comparable to benzalkonium chloride
biocidal effect ([1]; combination dispersions, emulsions, suspensions, 32° C.): comparable and better than the normal biocide package
biocidal effect ([1]; disinfection compound for pipes, benzalkonium chloride replaced with 1-5%, 32° C.): comparable to benzalkonium chloride
preservation effect ([1]; food, preservatives substituted with comparable amounts of NBDA): suitable preservation effect(s) as the beforementioned preservative(s)
biocidal effect ([1]; hand cleanser, sodiumbenzoate, MIT and BIT replaced, 32° C.): comparable or even better than the normal biocide package
biocidal effect ([1]; liquid dishwashing compound, MIT/BIT replaced with 0.01-1%, 32° C.): comparable to or even surpassing the conventional biocide
biocidal effect ([1]; liquid disinfection compound, benzalkonium chloride replaced with 1-5%, 32° C.): comparable or even surpassing benzalkonium chloride in function
biocidal effect ([1]; moisturizing crème, benzoate and commercial biocides replaced, 32° C.): comparable or even better than the normal biocide package
biocidal effect ([1]; soap, sodiumbenzoate, MIT and BIT replaced, 32° C.): comparable or even better than the normal biocide package
biocidal effect ([1]; stabilized suspension, MIT and BIT replaced, 32° C.): comparable and better than the normal biocide package
biocidal effect ([1]; swimming pool water, chlorine compounds replaced, 32° C.): comparable or even better than chlorine based traditional solutions
biocidal effect ([1]; toothpaste, benzoate (e.g. 0.5%) replaced with similar concentration): comparable or even better than benzoate
biocidal effect ([1]; veterinary disinfection compound, benzalkonium chloride and/or glutaraldehyde replaced with 1-5%, 32° C.): comparable or even surpassing both benzalkonium chloride and glutaraldehyde in function
biocidal effect ([1]; waterborne cooling compound, benzalkonium chloride replaced with 1-5%, 32° C.): comparable or surpassing benzalkonium chloride
biocidal effect ([1]; watersystems for toilets, washing facilities, benzalkonium chloride replaced with 1-5%, 32° C.): comparable to benzalkonium chloride
CFU/plate ([2]; 1.5%, contact time 5 min): >165 CFU/plate
log10 reduction ([2]; 1.5%, contact time 5 min): <5 log10
CFU/plate ([2]; 1.5%, contact time 60 min): >165 CFU/plate
log10 reduction ([2]; 1.5%, contact time 60 min): <5 log10
CFU/plate ([2]; 3.0%, contact time 5 min): >165 CFU/plate
log10 reduction ([2]; 3.0%, contact time 5 min): <5 log10
CFU/plate ([2]; 3.0%, contact time 60 min): >165 CFU/plate
log10 reduction ([2]; 3.0%, contact time 60 min): <5 log10
CFU/plate ([2]; 6.0%, contact time 5 min): >165 CFU/plate
log10 reduction ([2]; 6.0%, contact time 5 min): <5 log10
CFU/plate ([2]; 6.0%, contact time 60 min): 25 CFU/plate and 29 CFU/plate and 30 CFU/plate
log changes of CFU [3]: lower than 5 log units
log changes of CFU [4]: lower than 5 log units
